{
  "source": "patent US7732491B2",
  "about": "“Treatment of breast cancer with a PARP inhibitor alone or in combination with anti-tumor agents” (priority 2007, dated 2010)",
  "key": {"PARP": {"target": "T1, PARP (Homo sapiens, UniProt P09874)", "T1 construct": "endogenous in cells; host or cells: peripheral blood mononuclear cells (PBMCs) from patients", "T1 sequence (P09874 whole entry)": "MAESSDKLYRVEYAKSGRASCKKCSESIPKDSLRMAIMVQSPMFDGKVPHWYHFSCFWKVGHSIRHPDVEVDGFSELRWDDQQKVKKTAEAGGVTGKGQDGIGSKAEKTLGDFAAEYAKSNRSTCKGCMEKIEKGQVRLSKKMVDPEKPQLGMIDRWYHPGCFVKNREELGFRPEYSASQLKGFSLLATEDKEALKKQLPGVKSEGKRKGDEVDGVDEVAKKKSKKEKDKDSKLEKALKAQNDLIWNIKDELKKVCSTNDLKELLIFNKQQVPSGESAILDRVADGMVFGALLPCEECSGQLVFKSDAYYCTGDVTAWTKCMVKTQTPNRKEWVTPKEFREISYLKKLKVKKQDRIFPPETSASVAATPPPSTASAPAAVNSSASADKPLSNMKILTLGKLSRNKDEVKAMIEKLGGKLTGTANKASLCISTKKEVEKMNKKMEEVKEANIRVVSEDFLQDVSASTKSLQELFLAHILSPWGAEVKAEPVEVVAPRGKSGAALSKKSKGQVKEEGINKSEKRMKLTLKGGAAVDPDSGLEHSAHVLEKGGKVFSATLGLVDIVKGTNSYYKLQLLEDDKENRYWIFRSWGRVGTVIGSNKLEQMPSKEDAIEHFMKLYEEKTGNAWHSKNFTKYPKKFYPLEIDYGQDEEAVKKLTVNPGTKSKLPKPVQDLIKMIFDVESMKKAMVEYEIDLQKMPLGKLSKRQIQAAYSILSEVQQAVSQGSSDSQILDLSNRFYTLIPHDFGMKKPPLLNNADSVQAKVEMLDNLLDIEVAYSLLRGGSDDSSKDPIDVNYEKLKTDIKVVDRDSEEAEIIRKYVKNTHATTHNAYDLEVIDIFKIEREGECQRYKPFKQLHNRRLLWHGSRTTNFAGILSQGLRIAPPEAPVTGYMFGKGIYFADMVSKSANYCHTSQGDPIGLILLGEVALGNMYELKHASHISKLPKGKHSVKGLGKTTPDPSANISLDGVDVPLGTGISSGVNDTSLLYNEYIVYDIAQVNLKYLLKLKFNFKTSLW", "experiment": "PARP inhibition in peripheral mononuclear blood cells (PMBCs) from patients", "type": "in vivo", "method": "The functional activity of PARP before and after treatment of BA will be determined using a PARP activity assay in Peripheral Blood Mononuclear Cells (PBMCs). PBMCs will be prepared from 5 mL blood samples according to procedures described in detail in the study manual and PARP activity/inhibition will be measured."}, "[1]": {"tested_on": "MDA-MB-468 triple negative breast adenocarcinoma cell line", "experiment": "Cell cycle analysis (PI staining, flow cytometry)", "type": "cell-based, human", "set-up": "G1 / S / G2/M: unit not given here"}, "advanced breast tumors": {"tested_on": "advanced breast tumors", "experiment": "Phase 1b open-label dose escalation study of BA with chemotherapeutic regimens", "type": "in vivo, human"}, "Lipophilicity": {"experiment": "Lipophilicity", "type": "physicochemical", "from_the_text": "(§1) The person skilled in the art will recognize that BA may be administered in any pharmaceutically acceptable form. e.g. as a pharmaceutically acceptable salt, solvate, or complex. Additionally, as BA is capable of tautomerizing in solution, the tautomeric form of BA is intended to be embraced by the term BA (or the equivalent 4-iodo-3-nitrobenzamide), along with the salts, solvates or complexes. In some embodiments, BA may be administered in combination with a cyclodextrin, such as hydroxypropylbetacyclodextrin."}, "[2]": {"tested_on": "MDA-MB-468 triple negative breast adenocarcinoma cell line", "experiment": "Vital cells, % control", "type": "cell-based, human", "method": "(§2) Breast cancer cells are obtained from ATCC and cultured in Dulbecco Modified Eagle Medium with 10% fetal bovine serum. Cells are plated at 10^5 cells per P100 cell culture dish or at 10^4 cells per P60 cell culture dish in the presence of different concentrations compounds or DMSO control. Following treatment, the number of attached cells is measured using Coulter counter, and by staining with 1% methylene blue. Methylene blue is dissolved in 50%-50% mixture of Methanol and water. Cells are plated in 24- or 96-well plates and treated as planned, media are aspirated, cells are washed with PBS, fixed in methanol for 5-10 min, methanol is aspirated and plates are allowed to dry completely. Methylene blue solution is added to wells and plates are incubated for 5 min. Staining solution is removed and plates are washed with dH2O until washes are no longer blue. After plates are completely dry, a small amount of 1N HCl is added to each well to extract the methylene blue. The OD readout at 600 nm and a calibration curve are used to determine cell number.\nAfter the addition of drugs and incubation, cells are trypsinized and aliquots of the samples are taken for counting and PI (Propidium Iodide) exclusion assay. One part of the cells is centrifuged and resuspended in 0.5 ml ice-cold PBS containing 5 μg/ml of PI. The other part of the cells is fixed in ice-cold 70% ethanol and stored in a freezer overnight. For cell cycle analysis, cells are stained with propidium iodide (PI) by standard procedures. Cellular DNA content is determined by flow cytometry using BD LSRII FACS, and the percentages of cells in G1, S or G2/M are determined using ModFit software.\nas §2, with “min.” for “min,”\nPI exclusion, cell cycle, TUNEL assays, and BrdU labeling assays are performed as described above in Example 2."}, "[3]": {"experiment": "Tissue distribution / blood-brain barrier", "conditions": "in vivo", "from_the_text": "as §1\nWhile not wishing to be bound by any particular theory, it is believed that BA achieves its anti-neoplastic effect by inhibiting the function of PARP. In some embodiments, BA can be used in the treatment of triple negative metastatic breast tumors. In some embodiments, BA can be used in the treatment of breast tumors in which at least one of ER, PR, and Her2 is negative. In some embodiments, BA can be used in the treatment of breast tumors in which at least two of ER, PR, and Her2 is negative, e.g. ER-negative, PR-negative, and Her-2 positive; or ER-positive, PR-negative, and Her-2 negative; or ER-negative, PR-positive, and Her-2 negative."}, "[4]": {"conditions": "in vivo; cited from earlier work"}, "Bcr-abl": {"tested_on": "Bcr-abl", "conditions": "read-out: inhibits Bcr-abl phosphorylation, IC50; cited from earlier work"}, "[5]": {"tested_on": "panel of 63 other kinases, including native c-Abl", "conditions": "cited from earlier work"}, "[6]": {"conditions": "prepared as directed (10 mg/ml); room temperature; cited from earlier work"}},
  "data": [
    {"smiles": "NC(=O)c1ccc(I)c([N+](=O)[O-])c1", "note": "[BA, 4-iodo-3-nitrobenzamide]", "values": [
      {"measurement": "biologically relevant dose that elicits significant and sustained PARP inhibition", "setting": "PARP; Phase 1b", "value": 2.8, "unit": "mg/kg"},
      {"measurement": "PARP inhibition in PBMCs from patients", "setting": "PARP; after multiple dosing with BA doses of 2.8 mg/kg or higher, FIG. 3", "value": "significant and prolonged PARP inhibition"},
      {"measurement": "effect on cell cycle arrest and antiproliferative effect of gamma irradiation", "setting": "[1]; 3 gray of gamma irradiation with 100 μM of BA, FIG. 6", "value": "potentiates S- and G2/M cell cycle arrest and enhances the antiproliferative effect of gamma irradiation"},
      {"measurement": "effect on cell cycle arrest and cytotoxic effects induced by PPP", "setting": "[1]; BA in combination with PPP", "value": "potentiates S- and G2/M cell cycle arrest and enhances cytotoxic effects"},
      {"measurement": "effect on cell cycle arrest and cytotoxic effects induced by carboplatin or gemcitabine", "setting": "[1]; BA in combination with gemcitabine or carboplatin, FIG. 2", "value": "potentiates S- and G2/M cell cycle arrest and enhances cytotoxic effects"},
      {"measurement": "effect on cell cycle arrest and cytotoxic effects induced by irinotecan", "setting": "[1]; BA in combination with irinotecan", "value": "potentiates S- and G2/M cell cycle arrest and enhances cytotoxic effects"},
      {"measurement": "G1", "setting": "[1]; Irinotecan 0 uM + BA 50 uM", "value": 65.50},
      {"measurement": "G2/M", "setting": "[1]; Irinotecan 0 uM + BA 50 uM", "value": 11.02},
      {"measurement": "S", "setting": "[1]; Irinotecan 0 uM + BA 50 uM", "value": 23.48},
      {"measurement": "G1", "setting": "[1]; Irinotecan 0 uM + BA 100 uM", "value": 57.72},
      {"measurement": "G2/M", "setting": "[1]; Irinotecan 0 uM + BA 100 uM", "value": 15.34},
      {"measurement": "S", "setting": "[1]; Irinotecan 0 uM + BA 100 uM", "value": 26.93},
      {"measurement": "G1", "setting": "[1]; PPP 0 nM + 201 50 uM", "value": 50.20},
      {"measurement": "G2/M", "setting": "[1]; PPP 0 nM + 201 50 uM", "value": 15.21},
      {"measurement": "S", "setting": "[1]; PPP 0 nM + 201 50 uM", "value": 31.34},
      {"measurement": "G1", "setting": "[1]; PPP 0 nM + 201 100 uM", "value": 40.63},
      {"measurement": "G2/M", "setting": "[1]; PPP 0 nM + 201 100 uM", "value": 20.16},
      {"measurement": "S", "setting": "[1]; PPP 0 nM + 201 100 uM", "value": 34.52},
      {"measurement": "subjects with evidence of stable disease for 2 cycles of treatment or more", "setting": "advanced breast tumors; BA in combination with chemotherapeutic regimens", "value": "Approximately 80%"},
      {"measurement": "tolerability of combination of BA with each cytotoxic regimen", "setting": "advanced breast tumors; with topotecan, gemcitabine, temozolomide, or carboplatin+paclitaxel", "value": "well tolerated"},
      {"measurement": "lipophilicity", "setting": "Lipophilicity", "value": "very lipophilic"},
      {"measurement": "vital cells, % control", "setting": "[2]; Irinotecan 0 uM + BA 50 uM", "value": 91.5, "unit": "% control"},
      {"measurement": "vital cells, % control", "setting": "[2]; Irinotecan 0 uM + BA 100 uM", "value": 67.5, "unit": "% control"},
      {"measurement": "Vital Cell % control", "setting": "[2]; PPP 0 nM + 201 50 uM", "value": 82, "unit": "% control"},
      {"measurement": "Vital Cell % control", "setting": "[2]; PPP 0 nM + 201 100 uM", "value": 61, "unit": "% control"},
      {"measurement": "tissue distribution", "setting": "[3]", "value": "distributes rapidly and widely into tissues, including the brain and cerebrospinal fluid (CSF)"},
      {"measurement": "blood-brain barrier", "setting": "[4]", "value": "cross the blood-brain barrier"}
    ]},
    {"smiles": "NC(=O)c1cccc(-c2cc(Nc3ccc(OC(F)(F)F)cc3)ncn2)c1", "note": "[GNF-2]", "values": [
      {"measurement": "IC50", "setting": "Bcr-abl", "value": 267, "unit": "nM"},
      {"measurement": "inhibition of a panel of 63 other kinases, including native c-Abl", "setting": "[5]", "value": "does not inhibit"}
    ]},
    {"smiles": "CCc1c2c(nc3ccc(OC(=O)N4CCC(N5CCCCC5)CC4)cc13)-c1cc3c(c(=O)n1C2)COC(=O)[C@]3(O)CC", "note": "[Irinotecan, reference compound]", "values": [
      {"measurement": "G1", "setting": "[1]; Irinotecan 5 uM + BA 0 uM", "value": 38.17},
      {"measurement": "G2/M", "setting": "[1]; Irinotecan 5 uM + BA 0 uM", "value": 28.05},
      {"measurement": "S", "setting": "[1]; Irinotecan 5 uM + BA 0 uM", "value": 33.77},
      {"measurement": "vital cells, % control", "setting": "[2]; Irinotecan 5 uM + BA 0 uM", "value": 48.6, "unit": "% control"}
    ]},
    {"smiles": "COc1cc([C@@H]2c3cc4c(cc3[C@H](O)[C@H]3COC(=O)[C@@H]23)OCO4)cc(OC)c1OC", "note": "[PPP, Picropodophyllin, reference compound]", "values": [
      {"measurement": "G1", "setting": "[1]; PPP 200 nM + 201 0 uM", "value": 51.42},
      {"measurement": "G2/M", "setting": "[1]; PPP 200 nM + 201 0 uM", "value": 15.01},
      {"measurement": "S", "setting": "[1]; PPP 200 nM + 201 0 uM", "value": 30.22},
      {"measurement": "G1", "setting": "[1]; PPP 400 nM + 201 0 uM", "value": 37.29},
      {"measurement": "G2/M", "setting": "[1]; PPP 400 nM + 201 0 uM", "value": 20.17},
      {"measurement": "S", "setting": "[1]; PPP 400 nM + 201 0 uM", "value": 25.32},
      {"measurement": "Vital Cell % control", "setting": "[2]; PPP 200 nM + 201 0 uM", "value": 89, "unit": "% control"},
      {"measurement": "Vital Cell % control", "setting": "[2]; PPP 400 nM + 201 0 uM", "value": 60, "unit": "% control"}
    ]},
    {"smiles": "N.N.O=C([O-])C1(C(=O)[O-])CCC1.[Pt+2]", "note": "[carboplatin]", "values": [
      {"measurement": "stability of carboplatin solutions", "setting": "[6]", "value": "eight"}
    ]}
  ]
}
